System: TGFβ1-induced expression of COL1A1 protein in human HSC
Assay: Col1α1 ELISA on supernatants of TGFβ1-activated human HSC
Format: cell-based
Details: 48 h
Protocol: The human primary hepatic stellate cells (hHSC) (Innoprot) were cultured in STeCM medium (ScienCell cat #5301) that was supplemented with 2% fetal bovine serum (FBS, ScienCell cat #0010), 1% penicillin/streptomycin (ScienCell cat #0503) and stellate cell growth supplement (SteCGS; ScienCell cat #5352). Cell culture flasks were coated with Poly-L Lysine (Sigma cat #P4707) for a better adherence.
The human primary hepatic stellate cells (hHSC) (Innoprot) were cultured under standard conditions, as described above. The cells were subsequently plated at a density of 2×10^4cells/well or 6,5×10^3 cells/well into 96-well or 384-well plates respectively. The next day, cell-culture medium was removed, and cells were washed with PBS (Invitrogen cat #14190). Then, hHSC were deprived for 24 hours in serum-free and SteCGS-free medium. For the treatments with compounds of formula (I), the serum-deprived hHSC were preincubated for 1 hour with the compounds followed by addition of the profibrogenic stimuli TGFβ1 (PeproTech cat #100-21, 1 ng/mL) in serum-free and SteCGS-free medium for an additional 48 hour period. At the end of treatment, the cell culture supernatants of treated-HSC were transferred into a new plate before storage at −20° C.The cells were washed with PBS (Invitrogen, cat #14190) before the addition of lysis buffer (CelLytic™ MT reagent; Sigma #C3228). Plates were then incubated for 30 min on ice using a plate shaker, before storage at −20° C.
The level of the human pro-Collagen α1 (col1α1) was measured using a Sandwich ELISA (R&D systems,). Briefly, the wells of an ELISA plate were first coated with the capture antibody at room temperature overnight. After 3 washes in PBS +0.05% Tween 20, a blocking solution consisting of PBS +1% BSA was added for one hour followed by another washing cycle. […]
Serum-deprived HSC were preincubated for 1 hour with RM-5061 before the activation with the profibrogenic cytokine TGFβ1 (1 ng/ml). After 48 hours of incubation, the cellular α-SMA content as well as secreted COL1A1 were measured by ELISA. […]

CC(C)(C)[C@H](N)C(=O)Oc1ccccc1C(=O)Nc1ncc([N+](=O)[O-])s1 [RM-5061, (S)-2-(5-nitrothiazol-2-ylcarbamoyl)phenyl 2-amino-3,3-dimethylbutanoate]
effect on COL1A1 in human HSC (TGFβ1 1 ng/ml): reduced in a comparable manner
IC50 (secreted COL1A1, TGFβ1 1 ng/ml): 2.67 µM
Max % I Over TGFβ, COL1A1 (secreted COL1A1, TGFβ1 1 ng/ml): 43%
